Experimental data reported in paper doi:10.1101/2025.08.06.668955, “High-Affinity, Structure-Validated and Selective Macrocyclic Peptide Tools for Chemical Biology Studies of Huntingtin” (bioRxiv, 2025).
Where a SMILES comes first, the peptide text is derived from it. Bridges are numbered along the chain shown (N, C = ends).

What was measured:
[1] = biological target: T1, HTTQ23-HAP40 (Homo sapiens, UniProt P23610+P42858, INS38QQ); experiment: Thermal shift assay (DSF), HTTQ23-HAP40; format: binding; conditions: SYPRO Orange, 0.25 mg/mL protein, macrocycle up to 10 μM, 2.5% DMSO, n=3
T1 construct: Full-length wildtype HTT with a polyQ tract of 23 glutamines; FLAG; made in house; host or cells: Sf9 insect cells (baculovirus)
Procedure: In an Axygen® 384-well PCR microplate (REF# PCR-384-LC480-W-NF, Corning), samples were mixed to yield a final concentration of 0.25 mg/mL Q54 or Q23/HAP40, a 5-pt 2-fold serial dilution of each macrocycle (top concentration of 10 μM, 2.5% DMSO), and 5X SYPRO™ Orange (CAT# S6650, Thermo Fisher Scientific) in buffer (20 mM HEPES pH 7.4, 150 mM NaCl, 1 mM TCEP, 0.005% Tween-20). Differential Scanning Fluorimetry (DSF) was performed using a LightCycler® 480 (Roche LifeSciences) set to a 4 °C/min temperature ramp (20–95 °C) and fluorescence detection at 580 nm. Melting temperatures (Tm) were obtained from the minima of the negative derivative of each curve. The propagated error of the thermal shift (ΔTm) was calculated from the standard deviation of each Tm mean (n=3). To ensure a maximally macrocycle-bound fraction (KD ~10 nM; ~100% bound) at 0.25 mg/mL HTT or HTT-HAP40 (~0.7 μM), the upper limit of macrocycle tested was 10 μM.
98 Supplementary Figure. 10. Thermal shift (ΔTm) induced by macrocycle binding. Melting
99 temperature of HTTQ54 (left) with HL5 or HL2 minus HTTQ54 with DMSO (46.5 °C), and (right)
100 HTTQ23-HAP40 with HD4, HL2, HL5, HHD2, HHD3, or HHL1 minus HTTQ23-HAP40 with DMSO
101 (51.0 °C). ΔTm significance was determined using an unpaired t-test with Welch correction,
102 comparing to the mean Tm of Q54 or Q23-HAP40 with DMSO; *P < 0.05, **P < 0.01, ***P <
103 0.001. The summary table reports the ΔTm and exact P value at the highest concentration tested
(1 picture or pasted object on this page, not shown here)

[2] = tested on: HAP40; experiment: Macrocycle precipitation (MP), co-purification of HAP40, LC-MS/MS; format: binding, human; conditions: HEK293T lysate versus HTT CRISPR knockout line

T1 sequence (P42858 with tags, fused parts or gaps INS38QQ): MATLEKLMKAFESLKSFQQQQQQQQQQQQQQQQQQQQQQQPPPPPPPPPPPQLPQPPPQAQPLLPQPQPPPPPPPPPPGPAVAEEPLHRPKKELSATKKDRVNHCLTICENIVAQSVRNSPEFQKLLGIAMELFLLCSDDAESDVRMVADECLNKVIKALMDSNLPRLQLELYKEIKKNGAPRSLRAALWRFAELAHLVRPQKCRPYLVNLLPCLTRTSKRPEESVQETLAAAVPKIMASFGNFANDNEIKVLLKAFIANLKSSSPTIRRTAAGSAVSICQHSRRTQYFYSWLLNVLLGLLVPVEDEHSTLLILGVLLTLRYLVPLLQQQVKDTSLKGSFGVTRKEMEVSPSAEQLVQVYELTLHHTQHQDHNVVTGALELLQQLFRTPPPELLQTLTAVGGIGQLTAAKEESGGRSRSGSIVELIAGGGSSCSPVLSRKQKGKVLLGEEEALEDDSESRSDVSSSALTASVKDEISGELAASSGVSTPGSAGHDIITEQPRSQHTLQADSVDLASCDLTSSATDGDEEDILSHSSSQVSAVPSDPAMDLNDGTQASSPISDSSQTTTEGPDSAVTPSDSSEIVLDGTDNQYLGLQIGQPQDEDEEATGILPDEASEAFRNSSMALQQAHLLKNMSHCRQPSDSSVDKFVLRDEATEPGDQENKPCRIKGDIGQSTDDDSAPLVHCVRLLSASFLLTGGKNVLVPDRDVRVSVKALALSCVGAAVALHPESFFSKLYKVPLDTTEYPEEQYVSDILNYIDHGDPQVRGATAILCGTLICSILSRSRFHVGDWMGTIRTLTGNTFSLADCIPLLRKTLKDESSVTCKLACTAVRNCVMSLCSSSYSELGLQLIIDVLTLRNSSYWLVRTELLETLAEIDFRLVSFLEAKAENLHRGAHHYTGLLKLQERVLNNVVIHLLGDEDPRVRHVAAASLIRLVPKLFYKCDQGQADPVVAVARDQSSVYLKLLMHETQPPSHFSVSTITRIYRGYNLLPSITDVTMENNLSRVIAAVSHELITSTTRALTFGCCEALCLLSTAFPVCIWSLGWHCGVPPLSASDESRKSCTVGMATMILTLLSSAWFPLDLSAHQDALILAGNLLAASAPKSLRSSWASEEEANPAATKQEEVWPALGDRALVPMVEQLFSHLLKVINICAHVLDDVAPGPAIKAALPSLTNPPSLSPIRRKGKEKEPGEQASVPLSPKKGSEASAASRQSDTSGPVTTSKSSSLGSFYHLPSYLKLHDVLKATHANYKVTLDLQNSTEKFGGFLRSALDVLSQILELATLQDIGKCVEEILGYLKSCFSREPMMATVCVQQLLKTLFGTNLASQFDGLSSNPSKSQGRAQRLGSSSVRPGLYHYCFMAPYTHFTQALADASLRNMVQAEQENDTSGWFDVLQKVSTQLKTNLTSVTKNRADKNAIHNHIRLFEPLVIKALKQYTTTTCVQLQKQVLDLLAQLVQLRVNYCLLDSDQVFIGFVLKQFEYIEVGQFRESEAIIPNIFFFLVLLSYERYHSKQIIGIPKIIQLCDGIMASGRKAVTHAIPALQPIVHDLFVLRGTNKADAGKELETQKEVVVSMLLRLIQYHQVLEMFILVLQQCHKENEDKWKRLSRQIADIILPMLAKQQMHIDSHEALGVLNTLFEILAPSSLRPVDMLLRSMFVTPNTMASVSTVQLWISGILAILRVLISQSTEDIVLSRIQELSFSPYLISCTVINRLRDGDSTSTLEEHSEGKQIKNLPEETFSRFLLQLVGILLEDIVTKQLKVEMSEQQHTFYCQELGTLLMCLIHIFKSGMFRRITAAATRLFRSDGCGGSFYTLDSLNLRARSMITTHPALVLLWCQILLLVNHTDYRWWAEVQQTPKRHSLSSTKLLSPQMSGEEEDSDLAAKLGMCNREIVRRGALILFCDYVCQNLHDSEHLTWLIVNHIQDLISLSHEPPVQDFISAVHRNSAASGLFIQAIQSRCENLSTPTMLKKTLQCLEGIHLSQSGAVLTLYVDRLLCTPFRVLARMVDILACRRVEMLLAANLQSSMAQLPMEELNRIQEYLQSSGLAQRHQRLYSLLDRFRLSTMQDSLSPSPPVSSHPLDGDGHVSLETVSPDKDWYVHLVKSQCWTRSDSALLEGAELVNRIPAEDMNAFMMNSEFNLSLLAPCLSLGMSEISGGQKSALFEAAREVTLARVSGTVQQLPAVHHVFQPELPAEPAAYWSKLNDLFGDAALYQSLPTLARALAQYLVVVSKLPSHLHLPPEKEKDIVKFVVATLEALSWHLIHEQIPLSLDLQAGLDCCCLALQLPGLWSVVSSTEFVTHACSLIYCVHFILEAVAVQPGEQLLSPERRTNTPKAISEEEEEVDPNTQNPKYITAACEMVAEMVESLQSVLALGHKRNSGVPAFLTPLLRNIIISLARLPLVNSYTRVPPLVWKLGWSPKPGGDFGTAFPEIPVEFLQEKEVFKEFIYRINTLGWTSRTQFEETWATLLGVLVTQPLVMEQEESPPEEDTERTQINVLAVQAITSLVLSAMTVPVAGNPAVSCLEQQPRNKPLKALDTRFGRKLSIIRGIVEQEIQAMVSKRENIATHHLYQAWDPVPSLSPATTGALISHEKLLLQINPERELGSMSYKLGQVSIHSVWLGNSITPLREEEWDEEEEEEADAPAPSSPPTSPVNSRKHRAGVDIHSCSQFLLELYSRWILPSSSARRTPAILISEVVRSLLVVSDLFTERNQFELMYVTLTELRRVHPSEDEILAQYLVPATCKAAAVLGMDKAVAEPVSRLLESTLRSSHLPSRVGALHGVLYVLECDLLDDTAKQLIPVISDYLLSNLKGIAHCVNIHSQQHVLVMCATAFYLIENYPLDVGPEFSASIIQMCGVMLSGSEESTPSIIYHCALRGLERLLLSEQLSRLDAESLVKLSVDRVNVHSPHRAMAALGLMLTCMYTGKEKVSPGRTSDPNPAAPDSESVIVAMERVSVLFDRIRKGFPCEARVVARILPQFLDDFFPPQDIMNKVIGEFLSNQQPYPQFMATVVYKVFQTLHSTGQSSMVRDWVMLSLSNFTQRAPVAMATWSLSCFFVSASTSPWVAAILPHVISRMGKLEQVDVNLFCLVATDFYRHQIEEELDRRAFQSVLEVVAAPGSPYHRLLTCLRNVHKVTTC
T1 sequence (P23610 whole entry, stated change not applied): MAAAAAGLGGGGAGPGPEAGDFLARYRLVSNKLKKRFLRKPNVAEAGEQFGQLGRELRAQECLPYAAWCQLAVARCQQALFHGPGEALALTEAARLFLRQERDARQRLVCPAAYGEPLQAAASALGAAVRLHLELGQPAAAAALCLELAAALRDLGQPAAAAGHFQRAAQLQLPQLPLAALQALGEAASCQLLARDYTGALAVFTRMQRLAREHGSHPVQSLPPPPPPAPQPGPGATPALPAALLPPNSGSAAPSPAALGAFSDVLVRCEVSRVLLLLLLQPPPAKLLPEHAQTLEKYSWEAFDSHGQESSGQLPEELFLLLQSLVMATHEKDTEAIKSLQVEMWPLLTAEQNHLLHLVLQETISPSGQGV

- Thermal shift (ΔTm) of HTTQ23-HAP40 induced by macrocycle [1]: No significant thermal effects
SMILES: CC(C)C[C@@H]1NC(=O)[C@H](Cc2ccc(O)cc2)NC(=O)[C@H](CCCNC(=N)N)NC(=O)[C@H](C)NC(=O)[C@H]([C@@H](C)O)NC(=O)[C@H](Cc2ccc(O)cc2)NC(=O)CSC[C@@H](C(N)=O)NC(=O)[C@H](CCCCN)NC(=O)[C@H](Cc2ccc(O)cc2)NC(=O)[C@H](Cc2c[nH]cn2)NC(=O)[C@H](CC(C)C)NC(=O)[C@H]([C@@H](C)O)NC(=O)CNC(=O)[C@H](CC(C)C)NC(=O)[C@H]([C@@H](C)O)NC1=O [HL2] ({CH2CO}-YTARYLTLGTLHYKC-NH2; thioether N-15; C-terminus assumed)
- Enrichment of HAP40 in macrocycle pulldowns [2]: consistently enriched
